Data taken from US20050209278A1, “Piperidinyl- and piperazinyl-sulfonylmethyl hydroxamic acids and their use as protease inhibitors” (priority 2002, published 2005).

Target: T1, MMP-14 (Homo sapiens, UniProt P50281)
T1 construct: The catalytic domain enzyme was expressed in E. coli inclusion bodies, solubilized in urea; made in house
Test: In vitro MMP inhibition, IC50 determination (fluorogenic substrate I)
Assay type: biochemical
Details: value in parenthesis; read-out: MMP-14 (IC-50)
Procedure: Several hydroxamic acids and salts thereof were analyzed in in vitro assays to determine their ability to inhibit the MMP cleavage of peptide substrates. […] and IC50 constants were calculated from the assayed hydroxamic acid-MMP interactions. Human recombinant MMP-1, MMP-2, MMP-9, MMP-13, and MMP-14 were used in this assay. All enzymes were prepared in Assignee's laboratories following usual laboratory procedures. Protocols for the preparation and use of these enzymes are available in the scientific literature. See, e.g., Enzyme Nomenclature (Academic Press, San Diego, Calif., 1992) (and the citations therein). See also, Freije et al., “Molecular cloning and expression of collagenase-3, a novel human matrix metalloproteinase produced by breast carcinomas,” J Biol. Chem., 269(24), 16766-16773 (1994). The MMP-14 full length cDNA was provided by Dr. Gregory Goldberg of Washington University (St. Louis, Mo.). The catalytic domain enzyme was expressed in E. coli inclusion bodies, solubilized in urea, purified on a preparative […] reverse phase HPLC column, and then refolded in the presence of zinc acetate and purified for use. All MMPs were activated using 4-aminophenylmercuric acetate (“APMA”, Sigma Chemical, St. Louis, Mo.) or trypsin. MMP-9 also was activated using human recombinant MMP-3 (purified in Assignee's laboratory following standard cloning and purification techniques). […] Substrate (I) was purchased from Baychem (Redwood City, Calif.), and substrate II was prepared Assignee's laboratory. Substrate I was used in the IC50 determination assays, while substrate II was used in the Ki determination assays. In the absence of MMP inhibitory activity, either substrate is cleaved at the Gly-Leu peptide bond. […] The stock solutions of the assayed hydroxamic acids (or salts thereof) were prepared in 1% dimethyl sulfoxide (DMSO). […] The experiment controls contained the same amount of Buffer A/DMSO as the assayed sample, but contained no hydroxamic acid (or salt thereof). The assays from which the IC50 determinations were made were performed as follows. […] Louis, Mo.). The assayed hydroxamic acid samples were incubated in MicrofluorTM White Plates (Dynatech, Chantilly, Va.) and analyzed on a Perkin Elmer […] plate reader (Norwalk, Conn.). The excitation wavelength was 328 nm, and the emission wavelength-415 nm. […] As stated in the previous paragraph, samples containing varying concentrations of the same assayed hydroxamic acid were prepared. Inhibition was measured as a reduction in fluorescent intensity as a function of MMP inhibitor concentration. […] All values in Table 2 are given in nM units. The IC50 measurements are in parenthesis.

IC50 [nM]	SMILES
6710	CCCCCCc1ccc(N2CCN(S(=O)(=O)C3(C(=O)NO)CCN(CCOC)CC3)CC2)cc1 [Example 199]
1490	CCCc1ccc(N2CCN(S(=O)(=O)C3(C(=O)NO)CCN(CCOC)CC3)CC2)cc1 [Example 200]
301	COCCN1CCC(C(=O)NO)(S(=O)(=O)N2CCN(c3ccc(Br)cc3)CC2)CC1 [Example 201]
1170	COCCN1CCC(C(=O)NO)(S(=O)(=O)N2CCN(c3ccc(OC(F)(F)F)cc3)CC2)CC1 [Example 202]
648	O=C(NO)C1(S(=O)(=O)N2CCN(c3ccc(OC(F)(F)F)cc3)CC2)CCN(C2CC2)CC1 [Example 203]
